The test system of assay [1] is human venous whole blood (IFN-γ). The assay can be described thus: Human whole blood IFN-γ assay. The following applies: whole blood, normalized to 3 μM reference compound as 100% activation, read-out: IFN-γ Whole Blood Normalized EC50. It is filed as cell-based. As to the method: Human venous whole blood (22.5 μL per well), obtained from healthy donors, was pre-treated with compounds for one hour at 37° C. in a humidified 95% air/5% CO2 incubator. The blood was stimulated with 2.5 μL anti-human CD3 and anti-CD28 mAb at a final concentration of 1 μg/mL each for 24 hours at 37° C. IFN-γ in the supernatants was measured using AlphLISA kit (Cat #AL217).

The test system of the next assay is whole blood (pERK). As to the kind of experiment: pERK Whole Blood assay (Table A; no whole-blood pERK method described). The following applies: normalized. It is filed as cell-based.
The target in a further assay is human DGKζ (Homo sapiens (Human), UniProt Q13574). The assay can be described thus: DGKζ LIPGLO assay (extruded liposome substrate, ADP-Glo luminescence). It counts as biochemical. The following applies: liposome assay; read-out: DGK zeta LIPGLO IC50. (In ADP-Glo the light output rises with the ADP produced.)
In another assay the target is human DGKα (Homo sapiens (Human), UniProt P23743). The assay can be described thus: DGKα LIPGLO assay (extruded liposome substrate, ADP-Glo luminescence). Particulars: liposome assay; read-out: DGK alpha LIPGLO IC50. It counts as biochemical.

The values that follow come from patent publication US11584747B2, “Substituted pyridopyrimidinonyl compounds useful as T cell activators” (BRISTOL-MYERS SQUIBB COMPANY, priority 2019, dated 2023).

Where two headings read alike, the source gives them in different places.

Chain of human DGKζ (Q13574 other isoform, or with tags, fused parts or gaps): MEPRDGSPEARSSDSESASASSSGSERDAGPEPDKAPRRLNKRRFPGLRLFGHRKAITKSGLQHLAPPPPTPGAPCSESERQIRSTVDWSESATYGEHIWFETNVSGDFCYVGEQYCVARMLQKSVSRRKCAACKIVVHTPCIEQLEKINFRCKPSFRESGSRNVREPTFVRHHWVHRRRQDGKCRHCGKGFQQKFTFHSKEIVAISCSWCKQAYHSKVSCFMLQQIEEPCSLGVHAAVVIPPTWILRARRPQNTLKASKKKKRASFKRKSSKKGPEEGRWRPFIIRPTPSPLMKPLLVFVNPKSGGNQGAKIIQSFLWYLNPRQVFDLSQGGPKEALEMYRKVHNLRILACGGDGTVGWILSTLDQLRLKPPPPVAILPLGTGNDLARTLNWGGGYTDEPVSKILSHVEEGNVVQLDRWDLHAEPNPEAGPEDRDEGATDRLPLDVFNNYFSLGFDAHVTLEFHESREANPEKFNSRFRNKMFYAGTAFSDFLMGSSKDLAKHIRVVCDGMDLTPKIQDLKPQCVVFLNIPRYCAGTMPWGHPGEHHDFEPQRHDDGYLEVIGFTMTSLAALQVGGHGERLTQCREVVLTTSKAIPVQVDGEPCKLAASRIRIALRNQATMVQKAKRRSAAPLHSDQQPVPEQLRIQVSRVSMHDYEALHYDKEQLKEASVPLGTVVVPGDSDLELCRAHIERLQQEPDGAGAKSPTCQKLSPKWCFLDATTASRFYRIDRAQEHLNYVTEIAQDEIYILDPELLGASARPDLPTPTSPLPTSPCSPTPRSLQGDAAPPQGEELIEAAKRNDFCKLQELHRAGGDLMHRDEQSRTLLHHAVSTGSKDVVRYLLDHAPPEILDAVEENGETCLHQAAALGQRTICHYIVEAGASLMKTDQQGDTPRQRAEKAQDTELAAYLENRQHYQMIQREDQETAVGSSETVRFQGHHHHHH
Chain of human DGKα (P23743 whole entry, looked up): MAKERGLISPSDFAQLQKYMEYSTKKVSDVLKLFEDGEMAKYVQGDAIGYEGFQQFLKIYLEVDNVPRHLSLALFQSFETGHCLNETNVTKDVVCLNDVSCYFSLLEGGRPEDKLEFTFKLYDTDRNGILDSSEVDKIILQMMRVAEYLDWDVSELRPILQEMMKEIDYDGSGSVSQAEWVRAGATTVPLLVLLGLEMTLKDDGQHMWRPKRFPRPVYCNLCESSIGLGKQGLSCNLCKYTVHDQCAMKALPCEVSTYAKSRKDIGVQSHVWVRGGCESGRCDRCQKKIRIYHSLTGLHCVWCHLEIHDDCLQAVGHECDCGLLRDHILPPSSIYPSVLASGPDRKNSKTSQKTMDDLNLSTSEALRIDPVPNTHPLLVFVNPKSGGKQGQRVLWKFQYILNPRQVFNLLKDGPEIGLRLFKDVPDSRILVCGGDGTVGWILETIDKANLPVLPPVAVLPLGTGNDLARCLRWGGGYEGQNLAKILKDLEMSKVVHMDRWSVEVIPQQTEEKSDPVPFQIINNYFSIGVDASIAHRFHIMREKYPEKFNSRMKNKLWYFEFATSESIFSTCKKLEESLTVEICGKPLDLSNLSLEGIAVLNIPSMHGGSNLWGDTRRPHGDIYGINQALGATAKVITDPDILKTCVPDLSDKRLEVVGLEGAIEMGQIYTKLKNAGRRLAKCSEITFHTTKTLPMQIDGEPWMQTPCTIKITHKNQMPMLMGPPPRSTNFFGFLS

The term EC50 denotes the concentration at which the effect is half-maximal. Broadly, the IC50 is the concentration that inhibits the measured activity by half. As to `CC[C@H]1CN(C(c2ccc(F)cc2)c2ccc(C(F)(F)F)cn2)[C@H](CC)CN1c1nc(=O)n(C)c2ccc(C#N)nc12` (single isomer, unassigned) [Example 1], the EC50 in assay [1] came out at 27 nM. Also, the IC50 was 1040 nM with whole blood (pERK), 36 nM on human DGKζ and 16 nM on human DGKα.

On to `CC[C@H]1CN(C(C)c2ccc(OC(F)(F)F)cc2F)[C@H](CC)CN1c1nc(=O)n(C)c2ccc(C#N)nc12` (single isomer, unassigned) [Example 38], for which, in assay [1], the EC50 came to 72 nM. The results for the concentration for half-maximal inhibition (IC50) in the assay with whole blood (pERK), on human DGKζ and at human DGKα were 220 nM, 120 nM and 66 nM, respectively.

Take `CC[C@@H]1CN(c2nc(=O)n(C)c3ccc(C#N)nc23)[C@@H](C)CN1C(c1ccc(F)cc1)c1ccc(C2CC2)cn1` (single isomer, unassigned) [Example 75]: the EC50 in assay [1] stood at 30 nM. The IC50 in the assay with whole blood (pERK) is 100 nM; at human DGKζ it was 33 nM; on human DGKα it was 39 nM.

On to `CC(c1ccc(F)c(F)c1)N1C[C@H](C)N(c2nc(=O)n(C)c3ccc(C#N)nc23)C[C@H]1C` (single isomer, unassigned) [Example 149], for which the concentration giving a half-maximal response (EC50) in assay [1] worked out at 8060 nM. Moreover, the IC50 was 1950 nM in the assay on whole blood (pERK), 1180 nM on human DGKζ and 4560 nM at human DGKα.

In the case of `C[C@@H]1CN(c2nc(=O)n(C)c3ccc(C#N)nc23)[C@@H](C)CN1C(c1ccc(F)cc1)c1ccon1` (single isomer, unassigned) [Example 163], the EC50 in assay [1] amounted to 250 nM. Also, the values for the IC50 in the assay with whole blood (pERK), on human DGKζ and at human DGKα were 490 nM, 460 nM and 38 nM, respectively.

As to `CC[C@H]1CN(C(C)c2ccc(C3CC3)cc2F)[C@H](CC)CN1c1nc(=O)n(C)c2ccc(C#N)nc12` (single isomer, unassigned) [Example 40], the half-maximal effective concentration (EC50) in assay [1] came to 21 nM. In addition, the IC50 in the assay on whole blood (pERK) was determined as 10 nM; on human DGKζ, 41 nM; on human DGKα it was 320 nM.

As to `CC[C@@H]1CN(c2nc(=O)n(C)c3ccc(C#N)nc23)[C@@H](C)CN1C(C)c1ccc(OC(F)(F)F)cc1` (single isomer, unassigned) [Example 48], the EC50 in assay [1] was found to be 18 nM. Moreover, the IC50 with whole blood (pERK) stood at 25 nM; on human DGKζ, 48 nM; on human DGKα, 16 nM.

In the case of `CC(c1ccc(C2CC2)cc1F)N1C[C@H](C)N(c2nc(=O)n(C)c3ccc(C#N)nc23)C[C@H]1C` (single isomer, unassigned) [Example 168], the EC50 in assay [1] turned out to be 110 nM. The IC50 with whole blood (pERK) was 220 nM; at human DGKζ, 150 nM; on human DGKα, 230 nM.

As to `CC(c1ccc(OC(F)F)cc1)N1C[C@H](C)N(c2nc(=O)n(C)c3ccc(C#N)nc23)C[C@H]1C` (single isomer, unassigned) [Example 157], the EC50 in assay [1] (Homo sapiens) was found to be 1420 nM. Moreover, the IC50 is 4360 nM in the assay on whole blood (pERK), 1380 nM on human DGKζ and 330 nM at human DGKα.

For the molecule `CCC(c1ccc(OC(F)(F)F)cc1F)N1C[C@H](C)N(c2nc(=O)n(C)c3ccc(C#N)nc23)C[C@H]1C` (single isomer, unassigned) [Example 152], the EC50 in assay [1] came to 200 nM. Besides, the IC50 with whole blood (pERK) was found to be 110 nM; on human DGKζ, 92 nM; at human DGKα, 29 nM.

As to `C[C@@H]1CN(c2nc(=O)n(C)c3ccc(C#N)nc23)[C@@H](C)CN1C(c1ccc(F)cc1)c1nc(C(C)(C)C)no1` (single isomer, unassigned) [Example 108], the 50% effective concentration (EC50) in assay [1] (Homo sapiens) is 57 nM. The figures for the half-inhibitory concentration (IC50) with whole blood (pERK), at human DGKζ and on human DGKα were 28 nM, 50 nM and 400 nM, respectively.

As to `CC[C@H]1CN(C(C)c2ccc(OC(F)(F)F)c(F)c2)[C@H](CC)CN1c1nc(=O)n(C)c2ccc(C#N)nc12` (single isomer, unassigned) [Example 30], the EC50 in assay [1] turned out to be 23 nM. The IC50 worked out at 59 nM with whole blood (pERK), 4 nM on human DGKζ and 76 nM on human DGKα.

As for `CC[C@H]1CN(C(C)c2ccc(C(F)(F)F)cc2)[C@H](CC)CN1c1nc(=O)n(C)c2ccc(C#N)nc12` (single isomer, unassigned) [Example 20], the EC50 in assay [1] came to 60 nM. Moreover, the concentration for half-maximal inhibition (IC50) in the assay with whole blood (pERK) turned out to be 130 nM; at human DGKζ it was 36 nM; at human DGKα it was 140 nM.

Regarding `CC[C@H]1CN(C(C)c2ccc(C3CC3)cc2)[C@H](CC)CN1c1nc(=O)n(C)c2ccc(C#N)nc12` (single isomer, unassigned) [Example 29], in assay [1], the EC50 worked out at 27 nM. Besides, the concentration for half-maximal inhibition (IC50) in the assay on whole blood (pERK) came to 100 nM; at human DGKζ it was 10 nM; on human DGKα, 40 nM.

As for `CC(c1ccc(OC(F)(F)F)c(F)c1)N1C[C@H](C)N(c2nc(=O)n(C)c3ccc(C#N)nc23)C[C@H]1C` (single isomer, unassigned) [Example 160], in assay [1], the EC50 stood at 240 nM. For the same molecule, the results for the IC50 in the assay with whole blood (pERK), at human DGKζ and at human DGKα were 860 nM, 250 nM and 110 nM, respectively.

In the case of `CC[C@H]1CN(C(C)c2ccc(OCC3CC3)cc2)[C@H](CC)CN1c1nc(=O)n(C)c2ccc(C#N)nc12` (single isomer, unassigned) [Example 23], the concentration for a half-maximal effect (EC50) in assay [1] stood at 11 nM. In addition, the IC50 with whole blood (pERK) amounted to 86 nM; at human DGKζ it was 29 nM; at human DGKα, 58 nM.

For the molecule `CC(c1ccc(Cl)cc1F)N1C[C@H](C)N(c2nc(=O)n(C)c3ccc(C#N)nc23)C[C@H]1C` (single isomer, unassigned) [Example 146], the EC50 in assay [1] (Homo sapiens) is 710 nM. The IC50 worked out at 250 nM in the assay on whole blood (pERK), 44 nM on human DGKζ and 47 nM at human DGKα.

In the case of `CC(c1ccc(C(F)(F)F)cc1F)N1C[C@H](C)N(c2nc(=O)n(C)c3ccc(C#N)nc23)C[C@H]1C` (single isomer, unassigned) [Example 150], the EC50 in assay [1] (Homo sapiens) amounted to 480 nM. The IC50 in the assay on whole blood (pERK) was found to be 140 nM; on human DGKζ it was 200 nM; on human DGKα, 350 nM.

For the molecule `CC[C@@H]1CN(c2nc(=O)n(C)c3ccc(C#N)nc23)[C@@H](C)CN1C(c1ccc(F)cc1)c1nc(C2CC2)cs1` (single isomer, unassigned) [Example 51], the EC50 in assay [1] (Homo sapiens) stood at 6 nM. The half-maximal inhibitory concentration (IC50) in the assay on whole blood (pERK) turned out to be 9 nM; on human DGKζ, 27 nM; on human DGKα it was 37 nM.

Turning to `CC[C@H]1CN(C(c2ccc(F)cc2)c2ccon2)[C@H](CC)CN1c1nc(=O)n(C)c2ccc(C#N)nc12` (single isomer, unassigned) [Example 35], the EC50 in assay [1] worked out at 120 nM. Also, the IC50 in the assay on whole blood (pERK) turned out to be 150 nM; at human DGKζ, 120 nM; at human DGKα, 30 nM.

For `CCC(c1ccc(OC(F)(F)F)cc1F)N1C[C@H](CC)N(c2nc(=O)n(C)c3ccc(C#N)nc23)C[C@H]1CC` (single isomer, unassigned) [Example 12], the EC50 in assay [1] (Homo sapiens) stood at 4150 nM. Further, the figures for the IC50 in the assay on whole blood (pERK), at human DGKζ and on human DGKα were 600 nM, 600 nM and 410 nM, respectively.

With `CC(c1ccc(OC(F)(F)F)cc1)N1C[C@H](C)N(c2nc(=O)n(C)c3ccc(C#N)nc23)C[C@H]1C` (single isomer, unassigned) [Example 131], the EC50 in assay [1] stood at 360 nM. Besides, the IC50 with whole blood (pERK) came out at 170 nM; at human DGKζ, 130 nM; at human DGKα, 10 nM.

`CC[C@@H]1CN(c2nc(=O)n(C)c3ccc(C#N)nc23)[C@@H](C)CN1C(C)c1ccc(OC)cc1` (single isomer, unassigned) [Example 56]: in assay [1], the 50% effective concentration (EC50) came to 39 nM. Moreover, the IC50 was 200 nM in the assay on whole blood (pERK), 11 nM at human DGKζ and 37 nM on human DGKα.

With `CC[C@H]1CN(C(C)c2ccc3c(c2)OC(F)(F)O3)[C@H](CC)CN1c1nc(=O)n(C)c2ccc(C#N)nc12` (single isomer, unassigned) [Example 14], the EC50 in assay [1] is 94 nM. The IC50 was determined as 900 nM with whole blood (pERK), 36 nM on human DGKζ and 350 nM on human DGKα.

For the molecule `CC[C@@H]1CN(c2nc(=O)n(C)c3ccc(C#N)nc23)[C@@H](C)CN1Cc1ccc(OC(F)(F)F)cc1` [Example 54, 4-((2S,5R)-5-ethyl-2-methyl-4-(4-(trifluoromethoxy)benzyl)piperazin-1-yl)-1-methyl-2-oxo-1,2-dihydropyrido[3,2-d]pyrimidine-6-carbonitrile], the 50% effective concentration (EC50) in assay [1] (Homo sapiens) is 310 nM. The figures for the IC50 in the assay on whole blood (pERK), at human DGKζ and on human DGKα were 910 nM, 350 nM and 240 nM, respectively.

As for `CC(c1ccc(F)cc1F)N1C[C@H](C)N(c2nc(=O)n(C)c3ccc(C#N)nc23)C[C@H]1C` (single isomer, unassigned) [Example 144], the IC50 with whole blood (pERK) was 65 nM; at human DGKζ it was 46 nM; on human DGKα it was 28 nM.

Turning to `CC[C@H]1CN(C(c2ccc(F)cc2)c2nc(C3CC3)nn2C)[C@H](CC)CN1c1nc(=O)n(C)c2ccc(C#N)nc12` (single isomer, unassigned) [Example 294], in assay [1] (Homo sapiens), the EC50 was 660 nM. In addition, the IC50 was found to be 200 nM with whole blood (pERK), 42 nM on human DGKζ and 8290 nM on human DGKα.

Regarding `CC(c1ccc(C(F)(F)F)cc1F)N1C[C@H](C)N(c2nc(=O)n(C)c3ccc(C#N)nc23)C[C@H]1C` (single isomer, unassigned) [Example 151], the half-maximal inhibitory concentration (IC50) was determined as 1870 nM in the assay on whole blood (pERK), 830 nM at human DGKζ and 3460 nM at human DGKα.

For the molecule `CC(c1ccc(OC(F)(F)F)cc1F)N1C[C@H](C)N(c2nc(=O)n(C)c3ccc(C#N)nc23)C[C@H]1C` (single isomer, unassigned) [Example 143], the half-inhibitory concentration (IC50) worked out at 1140 nM in the assay on whole blood (pERK), 2120 nM on human DGKζ and 1330 nM at human DGKα.
